Measured values published in ChEMBL document CHEMBL1201862, “PubChem BioAssay data set” (2004).
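The compound was tested at five concentrations on cells cultured in 96-well plates, with a 48-hour exposure period. The concentration for 50% growth inhibition is given as GI50.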 Calls of active or inactive are those of the source. No stated cut-off is given here; in the data, active = GI50 up to about 1.1 µM and inactive = higher.

Experiments:
Assay in all cases: NCI-60 cell line screen, 48 h
[1] = system: Malme-3M
[2] = system: COLO 205
[3] = system: NCI/ADR-RES
[4] = system: OVCAR-4
[5] = system: NCI-H460
[6] = system: PC-3
[7] = system: OVCAR-5
[8] = system: MCF7
[9] = system: SR
[10] = system: K562
[11] = system: A498
[12] = system: HCT-15
[13] = system: A549
[14] = system: RXF 393
[15] = system: MDA-N
[16] = system: U-251
[17] = system: UACC-62
[18] = system: IGROV-1
[19] = system: NCI-H522
[20] = system: EKVX

Row | SMILES | GI50 [1] | GI50 [2] | GI50 [3] | GI50 [4] | GI50 [5] | GI50 [6] | GI50 [7] | GI50 [8] | GI50 [9] | GI50 [10] | GI50 [11] | GI50 [12] | GI50 [13] | GI50 [14] | GI50 [15] | GI50 [16] | GI50 [17] | GI50 [18] | GI50 [19] | GI50 [20]
1 | N=C(N)N/N=C(/c1ccccc1)c1ccc(O)cc1O | 22.6 µM (inactive) | 17.5 µM (inactive) | 95.3 µM (inactive) | 57 µM (inactive) | 27.4 µM (inactive) | 29 µM (inactive) | 33 µM (inactive) | 30.7 µM (inactive) | 20.8 µM (inactive) | 46.3 µM (inactive) | 21.9 µM (inactive) | 39.4 µM | 38.1 µM (inactive) | 45 µM (inactive) | 11.7 µM (inactive) | 22.5 µM (inactive) | 30.1 µM (inactive) | 25.1 µM (inactive) | 15.3 µM (inactive) | 22.2 µM (inactive)
2 | FC(F)(Sc1ccccn1)c1nc2ccccc2o1 | > 100 µM (inactive) | > 100 µM (inactive) | 85.3 µM (inactive) | > 100 µM (inactive) | > 100 µM (inactive) | > 100 µM (inactive) | > 100 µM (inactive) | 55.2 µM (inactive) | > 100 µM (inactive) | 60.5 µM (inactive) | 38.7 µM (inactive) | 55.7 µM | > 100 µM (inactive) | > 100 µM (inactive) | > 100 µM (inactive) | 38.6 µM (inactive) | > 100 µM (inactive) | > 100 µM (inactive) | > 100 µM (inactive) | 
3 | CC(=O)c1c2c(cc3c1CC1(Cc4cc5c(cc4C1)CCC5)C3)CCC2 | > 100 µM (inactive) |  | > 100 µM (inactive) | > 100 µM (inactive) | > 100 µM (inactive) | > 100 µM (inactive) | > 100 µM (inactive) | > 100 µM (inactive) | > 100 µM (inactive) | > 100 µM (inactive) | > 100 µM (inactive) | > 100 µM | > 100 µM (inactive) | > 100 µM (inactive) | > 100 µM (inactive) | > 100 µM (inactive) |  | > 100 µM (inactive) | > 100 µM (inactive) | > 100 µM (inactive)
4 | COc1cc(C(SCc2ccccc2)SCc2ccccc2)ccc1O | > 10 µM (inactive) | > 10 µM (inactive) | > 10 µM (inactive) |  | > 10 µM (inactive) | > 10 µM (inactive) |  | > 10 µM (inactive) | > 10 µM (inactive) | > 10 µM (inactive) | > 10 µM (inactive) | > 10 µM |  | 9.4 µM (inactive) | > 10 µM (inactive) | > 10 µM (inactive) | > 10 µM (inactive) | > 10 µM (inactive) | > 10 µM (inactive) | > 10 µM (inactive)
5 | N#CCCN(CCC#N)c1ccc(C(/N=N/c2ccc(Cl)cc2)=N\c2ccccc2)cc1 |  | 3.2 µM (inactive) | 10.8 µM (inactive) | 11.6 µM (inactive) | 7.78 µM (inactive) | 12.6 µM (inactive) | 12.4 µM (inactive) | 11.7 µM (inactive) | 16 µM (inactive) | 41.7 µM (inactive) | 17.6 µM (inactive) | 5.93 µM | 14.1 µM (inactive) | 15.4 µM (inactive) | 10.9 µM (inactive) | 17.6 µM (inactive) | 6.49 µM (inactive) | 11.7 µM (inactive) | 15.1 µM (inactive) | 12.1 µM (inactive)
6 | CCC1CC2CN3CCc4c([nH]c5c(-c6c(OC)ccc7c8c([nH]c67)[C@]6(C(=O)OC)CC7CC(CC)C6N(CC8)C7)c(O)ccc45)[C@](C(=O)OC)(C2)C13 (stereo not given in full) | > 10 µM (inactive) | 11.4 µM (inactive) | 20.4 µM (inactive) |  | 14.7 µM (inactive) | 13.6 µM (inactive) | 16.6 µM (inactive) | 6.82 µM (inactive) | 13.3 µM (inactive) | 6.19 µM (inactive) | 15.1 µM (inactive) | 15.2 µM | 17.6 µM (inactive) | 12.2 µM (inactive) | 12.2 µM (inactive) | 12.9 µM (inactive) | 14.3 µM (inactive) | 14 µM (inactive) | 15.7 µM (inactive) | 17.1 µM (inactive)
7 | Nc1ccc2c(c1)C(=O)c1ccc(F)cc1-2 |  | > 100 µM (inactive) | > 100 µM (inactive) | > 100 µM (inactive) | > 100 µM (inactive) | > 100 µM (inactive) | > 100 µM (inactive) | > 100 µM (inactive) | 87.1 µM (inactive) | > 100 µM (inactive) | > 100 µM (inactive) | > 100 µM | > 100 µM (inactive) | 44.4 µM (inactive) | > 100 µM (inactive) | 40.8 µM (inactive) | > 100 µM (inactive) | > 100 µM (inactive) | > 100 µM (inactive) | 72.4 µM (inactive)
8 | N#CCOc1cccc(C2(N3CC=CCC3)CCCCC2)c1 | > 100 µM (inactive) | > 100 µM (inactive) | > 100 µM (inactive) | > 100 µM (inactive) |  | > 100 µM (inactive) | > 100 µM (inactive) | > 100 µM (inactive) | > 100 µM (inactive) | 43 µM (inactive) | > 100 µM (inactive) | > 100 µM | > 100 µM (inactive) |  | > 100 µM (inactive) | > 100 µM (inactive) | > 100 µM (inactive) | > 100 µM (inactive) | 57.8 µM (inactive) | > 100 µM (inactive)
9 | Clc1ccc(C(OCn2ccnc2)c2nc3ccccc3[nH]2)c(Cl)c1 (stereo not given) | 88.9 µM (inactive) | 34 µM (inactive) | 56.2 µM (inactive) | 16.6 µM (inactive) | 24.5 µM (inactive) | 35.2 µM (inactive) | > 100 µM (inactive) | 38.2 µM (inactive) | > 10 µM (inactive) | 45.7 µM (inactive) | 38.2 µM (inactive) | 27.7 µM | 43.4 µM (inactive) |  | 37.5 µM (inactive) | 31.4 µM (inactive) | 35 µM (inactive) | 43.3 µM (inactive) | 43.1 µM (inactive) | 66.2 µM (inactive)
10 | O=C(c1ccccc1)c1ccc2c(c1)nc1n2C(c2c(Cl)cccc2Cl)SC1 (stereo not given) | 97.5 µM (inactive) | 45.6 µM (inactive) | 40.3 µM (inactive) | 75.7 µM (inactive) | 40.2 µM (inactive) | 38.1 µM (inactive) | > 100 µM (inactive) | 39.4 µM (inactive) | 34 µM (inactive) |  | 58.7 µM (inactive) | 56 µM | 32.7 µM (inactive) | 79.8 µM (inactive) | 41.7 µM (inactive) | 69.5 µM (inactive) | 74.1 µM (inactive) | > 100 µM (inactive) | 55.8 µM (inactive) | 50.4 µM (inactive)
11 | Cc1ccc([N+](=O)[O-])cc1S(=O)(=O)Nc1ccc(C2=NNC(c3ccccc3)C2)cc1 (stereo not given) | 17 µM (inactive) | 16.9 µM (inactive) | 21.1 µM (inactive) | 14.5 µM (inactive) | 15.1 µM (inactive) | 16.7 µM (inactive) | 53.2 µM (inactive) | 14.9 µM (inactive) | 15.1 µM (inactive) | 6.73 µM (inactive) | 13.2 µM (inactive) | 10.4 µM | 19.1 µM (inactive) | 8.36 µM (inactive) | 23.9 µM (inactive) |  | 9.33 µM (inactive) | 16.3 µM (inactive) | 13.8 µM (inactive) | 21 µM (inactive)
12 | CC(=O)OCC1OC(OCC2OC(N3C(=S)N[C@H]([C@@H](O)[C@H](O)[C@H](O)CO)[C@H]3O)C(OC(C)=O)C(OC(C)=O)C2OC(C)=O)C(OC(C)=O)C(OC(C)=O)C1OC(C)=O (stereo not given in full) | > 100 µM (inactive) | > 100 µM (inactive) | > 100 µM (inactive) | > 100 µM (inactive) | > 100 µM (inactive) | > 100 µM (inactive) | > 100 µM (inactive) | > 100 µM (inactive) | > 100 µM (inactive) | 28.6 µM (inactive) | > 100 µM (inactive) | > 100 µM | > 100 µM (inactive) | > 100 µM (inactive) | > 100 µM (inactive) | > 100 µM (inactive) | > 100 µM (inactive) |  | 83.8 µM (inactive) | 
13 | Oc1cccc(-c2cc(O)c3cc4c(cc3n2)OCO4)c1 | 0.352 µM (active) | 2.68 µM (inactive) | 1.31 µM (inactive) | > 100 µM (inactive) | 17.8 µM (inactive) | 1.55 µM (inactive) | > 100 µM (inactive) | 3.1 µM (inactive) | 0.283 µM (active) | 0.505 µM (active) | 41.8 µM (inactive) | 2.74 µM | 5.27 µM (inactive) | 1.67 µM (inactive) | 0.231 µM (active) | 1.43 µM (inactive) | 2.42 µM (inactive) | 4.98 µM (inactive) | 0.284 µM (active) | 
14 | Nc1cccc(-c2cc(O)c3cc4c(cc3n2)OCO4)c1 | 0.318 µM (active) | 0.384 µM (active) | 0.581 µM (active) | > 61.9 µM (inactive) | 4.28 µM (inactive) | 0.644 µM (active) | > 100 µM (inactive) | 0.592 µM (active) | 0.191 µM (active) | 0.792 µM (active) | 2.45 µM (inactive) | 1.23 µM | 4.09 µM (inactive) | 1.02 µM (active) | 0.216 µM (active) | 1.81 µM (inactive) | 0.402 µM (active) |  | 0.273 µM (active) | 3.27 µM (inactive)
15 | O=c1[nH]cc(F)c(=O)[nH]1 [FLUOROURACIL] | 22.5 µM (inactive) |  | 41.3 µM (inactive) | 69.7 µM (inactive) | 1.05 µM (active) | 50.6 µM (inactive) | 172 µM (inactive) | 1.75 µM (inactive) | 4.36 µM (inactive) | 21.2 µM (inactive) | 10.2 µM (inactive) |  | 2.11 µM (inactive) | 54.1 µM (inactive) | 8.07 µM (inactive) | 44.3 µM (inactive) | 13.9 µM (inactive) | 14.3 µM (inactive) | 37 µM (inactive) | 299 µM (inactive)
